According to patent US6902728B1, “Chemokine receptor antagonist and cyclosporin in combined therapy” (Applied Research Systems ARS Holding N.V., priority 1998, dated 2005):
Values joined by “and” are separate entries in the source; they are usually repeats but may differ in a detail not shown here. Equal values may be shown once.

Columns and labels:
[1] = tested on: human microvascular endothelial cells (DMVEC); experiment: FACS analysis of adhesion molecule surface expression on DMVEC; assay type: cell-based; details: IL-1β 5 ng/ml, 12 hr; 3 independent experiments
Protocol: Flow cytometry analysis of dermal microvascular cells (DMVEC) was performed essentially as described (Weber C. et al., 1995). Briefly, confluent DMVEC stimulated with IL-Iβ (5 ng/ml), or left untreated for 12 h, were trypsinized, reacted with IL-saturating concentrations of ICAM-1 mAb RR1/1 (kindly provided by Dr. R. Rothlein), E-selectin mAb, VCAM-1 mAb (both Serotec), or isotype control for 30 min on ice, stained with fluorescein isothiocyanate (FITC)-conjuzated goat anti-mouse IgG (Boehringer Mannheim), and analysed in a FACScan (Becton Dickinson). After correction for unspecific binding, data were expressed as specific mean log fluorescence intensity (sMFI) in channels.

[2] = tested on: dermal microvascular endothelium (DMVEC); experiment: In vitro RANTES binding assay on DMVEC (modified ELISA); parameters: species or system human
Protocol: The DMVEC were grown to confluency on coated 96 well flat bottom plates, The resultant endothelial monolayer was either left untreated or treated with various concentrations of IL-L1β (0.1 to 5 ng/ml) for 12 h. The RANTES binding assay was a modification of a previously described procedure (Pattison J. et al., 1994, Wiedermann C. J. et al., 1993). Horseradish, peroxidase (HRP) conjugated anti-human-RANTES monoclonal antibody VL1 (0.1 μg) was pre-incubated at 25° C. for 30 min with an excess of recombinant human RANTES (20 μg/ml) in DMVEC growth media (without supplements). The chemokine-antibody complex was added then used to assay the relative chemokine binding capacity of the microvascular endothelium. The endothelial monolayer was gently washed 1× with unsupplemented growth media (25° C.) and the chemokine-antibody complex was added and incubated at 25° C. for 30 min. The wells were then washed four times with media without sera at 25° C. […] The optical density at 406 nm of the plate was determined using an ELISA plate reader.
Since a reduction of monocyte infiltration into vascular luminal spaces represented a prominent feature of Met-RANTES treatment in both transplantation models, we set out to study potential mechanisms for this effect. […] Using an ELISA-like format, the capacity of DMVEC to bind the antigen-mAb complex as opposed to mAb alone was determined. […]

[3] = tested on: MonoMac 6 cells on DMVEC; experiment: Monocyte recruitment on microvascular endothelium under physiological flow (laminar flow assay); assay type: cell-based, human
Protocol: The interaction of monocytes with DMVEC was studied in laminar flow assays performed essentially as descried (Weber C. et al., 1997, Kukerti S. et al., 1997, Piali L. et al., 1998). Briefly, DMVEC were grown to confluence in 35 mm Petri dishes, and stimulated with IL-1β (5 ng/ml) or left untreated for 12 h. The plates were assembled as the lower wall m a parallel wall flow chamber and mounted on the stage of an Olympus IMT-2 inverted microscope with 20× and 40× phase contrast objectives. Monotypes (MonoMac 6 cells) were cultured as reported (Ziegler-Heitbrock H. W. L. et al., 1988, Weber C. et al., 1993) and resuspended at 10^6/ml in assay buffer (HBSS) containing 10 mM Hepes/pH 7.4 and 0.5% HAS. Shortly before assay, 1 mM Mg^2+and 1 mM Ca^2+ was added. The cell suspensions were kept in a heating block at 37° C. during the assay and were perfused into the flow chamber at a rate of 1.5 dyn/cm for 5 min. For inhibition experiments, monocytes were preincubated with Met-RANTES at different concentrations (0.01-1 μg/ml) for 30 min on ice. The number of firmly adherent cells after 5 rain was quantified in multiple fields (at least 5 per experiment) by analysis of images recorded with a long integration JVC 3CCD video camera and a JVC SR L 900 E video recorder, and were expressed as cells/mm^2. The type of adhesion analysed was restricted to primary, i.e. direct interactions of monocytes with endotbelium. As an inverse measure of firm arrest, the number of cells rolling at reduced velocity on endothelium was determined within the last 30 sec. of the 5 min intervals, and were assessed as the percentage of all interactions in the field. The number of cells spreading or transmigrating after 5 min intervals was determined in high power fields as described (Luscinskas F. W. et al., 1994), and expressed as percentage of cells firmly attached.
In an attempt to gain insight into potential mechanisms of action of Met-RANTES, we studied whether a blockade of RANTES receptors could inhibit the firm arrest and diapedesis of monocytes on microvascular endothelium. To this end, we used monocytic MonoMac 6 cells that show the adhesive characteristics and integrin repertoire of mature monocytes, and express several chemokine receptors including CCR1 (Erl W. et al., 1995). DMVEC were grown to confluence on Petri dishes which were either left unstimulated or were activated with IL-1β (5 ng/ml) for 12 h. […] Under such physiological flow conditions, MonoMac 6 cells undergo short periods of rolling, and the attachment of a proportion of cells can be readily converted into shear-resistant arrest. After 5 min of accumulation, the number of MonoMac 6 cells that had undergone firm adhesion to the endothelium was determined (FIG. 2(a)).

Row | RANTES binding to microvascular endothelium following prestimulation ([2]; prestimulation with proinflammatory cytokine (5 ng/ml, 12 hours)) | RANTES binding to microvascular endothelium without prestimulation ([2]; resting DMVEC, HRP-VL1 mAb/RANTES complex) | Substance | ICAM-1 surface expression, SMFI [1] | spreading or transmigration of monocytes ([3]; after firm arrest, 5 min, IL-1β activated DMVEC) | firm adhesion of monocytic cells to unstimulated microvascular endothelium ([3]; endothelial cells pre-exposed to RANTES) | firm arrest and accumulation of monocytes on IL-1β-activated microvascular endothelium ([3]; endothelium pre-exposed to RANTES (10 ng/ml, 30 min), within 5 min) | fraction of monocytes rolling on the activated microvascular endothelium ([3]; inverse measure of firm arrest, IL-1β activated DMVEC)
1 | – | – | IL-1β: proinflammatory cytokine purchased from Sigma, used to activate DMVEC | 502 channels and 592 channels and 432 channels | – | – | – | –
2 | greatly increased | could bind some RANTES protein | RANTES: recombinant human C-C chemokine (regulated upon activation, normal T-cell expressed and secreted) | – | did not alter | no significant effect | markedly enhanced | reduced
